“Also recorded” adds a separate entry of the source.
What was measured:
[1] = target: T1, KOR (Homo sapiens, UniProt P41145); assay: KOR affinity (pKi) of pyridyl GB18 analogs, Figure 1b; assay type: binding; conditions: footnote a
[2] = target: T1, KOR; assay: Inhibition of forskolin-stimulated cAMP accumulation (KOR agonism, HTRF); assay type: cell-based
[3] = target: T1, KOR; assay: 35S-GTPγS binding in CHO-KOR cells; assay type: biochemical; conditions: read-out: KOR Emax
[4] = test system: 320 GPCRs; assay: GPCRome PRESTO-Tango screen across 320 GPCRs (PDSP); assay type: cell-based
[5] = target: MOR (Homo sapiens, UniProt P35372); parameters: method as in earlier paper of the authors (Woo, Shenvi, Nature 2022); conditions: antagonism; TANGO β-arrestin signaling, n = 3; ref earlier paper of the authors (Woo, Shenvi, Nature 2022); cited from earlier work
MOR, sequence (P35372 whole entry): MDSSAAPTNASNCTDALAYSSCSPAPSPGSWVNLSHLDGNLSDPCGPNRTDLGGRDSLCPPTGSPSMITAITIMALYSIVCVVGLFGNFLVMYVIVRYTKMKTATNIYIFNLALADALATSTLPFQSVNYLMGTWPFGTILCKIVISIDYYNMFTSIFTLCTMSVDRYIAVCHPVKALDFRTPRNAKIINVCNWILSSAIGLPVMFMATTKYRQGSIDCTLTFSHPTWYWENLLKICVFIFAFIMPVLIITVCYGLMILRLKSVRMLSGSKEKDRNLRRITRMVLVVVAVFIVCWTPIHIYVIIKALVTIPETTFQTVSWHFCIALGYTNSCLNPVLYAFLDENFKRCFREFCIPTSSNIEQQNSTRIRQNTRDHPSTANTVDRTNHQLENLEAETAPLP

[6] = target: T1, KOR; parameters: method as in earlier paper of the authors (Woo, Shenvi, Nature 2022); conditions: antagonism; TANGO β-arrestin signaling, n = 3; ref earlier paper of the authors (Woo, Shenvi, Nature 2022); cited from earlier work

T1 sequence (P41145 whole entry): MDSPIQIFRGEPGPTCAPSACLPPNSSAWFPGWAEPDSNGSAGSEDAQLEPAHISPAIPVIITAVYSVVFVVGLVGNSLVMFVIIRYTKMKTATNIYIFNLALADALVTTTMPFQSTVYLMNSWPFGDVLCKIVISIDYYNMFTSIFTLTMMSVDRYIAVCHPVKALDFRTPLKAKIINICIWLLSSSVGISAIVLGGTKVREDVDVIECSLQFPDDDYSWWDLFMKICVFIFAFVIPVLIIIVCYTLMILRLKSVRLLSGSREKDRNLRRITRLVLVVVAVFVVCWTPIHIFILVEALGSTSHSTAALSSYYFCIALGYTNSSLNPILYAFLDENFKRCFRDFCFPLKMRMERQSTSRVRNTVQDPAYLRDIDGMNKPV

Compound	Ki [1]	EC50 ([2]; inhibition of forskolin-stimulated cAMP accumulation, Figure 4 and text)	Emax ([2]; read-out: KOR Emax)	Emax [3]	GPCR selectivity in PRESTO-Tango agonist screen [4]	MOR pIC50 [5]	KOR pIC50 [6]
COC(=O)C1=CC23CCCCC2C2CC(c4cccc(C)n4)C(C)(O3)C12 (stereo not shown) [compound 2]	29.5 nM	476 nM	56%	34%	highly selective partial agonist; also recorded: agonized KOR with high selectivity among 320 GPCRs		
GB18						8	8

From publication PMC12395297, “Bidirectional Modification of a Galbulimima Alkaloid Identifies Selective Opioid Ligands” (ACS Central Science, 2025)
